The results in this text go back to US8470828B2, “Anellated pyridine compounds” (Hoffmann-La Roche Inc., priority 2010, dated 2013).

One series addresses T1, human D2 receptor (Homo sapiens, UniProt P14416).
T1 construct: expressed in transfected cells; host or cells: HEK293 EBNA cells, transient transfection; membrane preparation
The experiment in a line: Radioligand binding to cloned human D2 receptor expressed in HEK-293 EBNA cells ([3H]-spiperone). The conditions noted are these: HEK293 EBNA cell membranes, approximately 0.7 nM [3H]-spiperone, 1 h at RT.

The target of another series is human 5-HT2A receptor (Homo sapiens, UniProt P28223). The experiment in a line: Radioligand binding to cloned human 5-HT2A receptor expressed in HEK-293 EBNA cells ([3H]-ketanserin).
A further series deals with human D3 receptor (Homo sapiens, UniProt P35462). The experiment in a line: Radioligand binding to cloned human D3 receptor expressed in HEK-293 EBNA cells ([3H]-spiperone).

Structures are written as SMILES.

Chain of human D3 receptor (P35462 whole entry): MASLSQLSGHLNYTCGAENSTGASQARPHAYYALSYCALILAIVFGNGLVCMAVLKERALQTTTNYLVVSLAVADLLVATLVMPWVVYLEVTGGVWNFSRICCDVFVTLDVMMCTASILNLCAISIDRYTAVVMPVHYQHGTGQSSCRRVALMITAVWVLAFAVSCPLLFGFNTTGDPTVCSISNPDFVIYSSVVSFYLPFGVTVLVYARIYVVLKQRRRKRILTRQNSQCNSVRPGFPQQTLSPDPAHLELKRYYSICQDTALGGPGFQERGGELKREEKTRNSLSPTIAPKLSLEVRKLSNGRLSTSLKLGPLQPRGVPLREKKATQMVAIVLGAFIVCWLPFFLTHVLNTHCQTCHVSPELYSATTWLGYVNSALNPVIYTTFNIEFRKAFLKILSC
Chain of human 5-HT2A receptor (P28223 whole entry): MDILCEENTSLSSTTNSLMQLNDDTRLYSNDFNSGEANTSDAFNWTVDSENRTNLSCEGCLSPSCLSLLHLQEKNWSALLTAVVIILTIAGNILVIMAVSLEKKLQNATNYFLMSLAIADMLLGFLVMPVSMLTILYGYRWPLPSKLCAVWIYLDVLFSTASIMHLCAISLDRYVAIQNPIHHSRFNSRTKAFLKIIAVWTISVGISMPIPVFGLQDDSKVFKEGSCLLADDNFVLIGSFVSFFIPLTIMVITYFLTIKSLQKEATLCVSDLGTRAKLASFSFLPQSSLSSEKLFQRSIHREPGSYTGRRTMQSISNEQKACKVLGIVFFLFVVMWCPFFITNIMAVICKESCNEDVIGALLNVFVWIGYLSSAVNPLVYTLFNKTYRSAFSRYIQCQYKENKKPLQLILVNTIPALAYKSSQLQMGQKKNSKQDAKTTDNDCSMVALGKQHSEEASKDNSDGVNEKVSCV
T1 sequence (P14416 whole entry): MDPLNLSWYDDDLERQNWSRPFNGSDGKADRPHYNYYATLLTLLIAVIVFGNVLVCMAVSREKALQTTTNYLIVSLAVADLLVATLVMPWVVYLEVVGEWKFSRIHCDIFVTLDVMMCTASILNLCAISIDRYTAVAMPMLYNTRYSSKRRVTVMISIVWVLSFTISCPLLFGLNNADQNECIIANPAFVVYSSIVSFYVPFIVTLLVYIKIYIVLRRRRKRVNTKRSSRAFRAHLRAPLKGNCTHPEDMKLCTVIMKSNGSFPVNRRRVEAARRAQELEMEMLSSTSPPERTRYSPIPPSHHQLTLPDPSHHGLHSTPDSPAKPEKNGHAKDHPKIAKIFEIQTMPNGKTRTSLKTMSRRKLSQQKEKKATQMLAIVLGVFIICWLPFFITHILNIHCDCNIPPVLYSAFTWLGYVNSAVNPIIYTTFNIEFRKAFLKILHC
Method for human D3 receptor: HEK293 EBNA cells were transiently transfected with expression plasmids encoding for the human D2 or D3 or for the human 5-HT2A receptor, respectively. The cells were harvested 48 h post-transfection, washed three times with cold PBS and stored at −80° C. prior to use. The pellet was suspended in cold 50 mM Tris-HCl buffer comprising 10 mM EDTA (pH 7.4) and was homogenized with a Polytron (Kinematica A G, Basel, Switzerland) for 20-30 sec at 12.000 rpm. After centrifugation at 48.000×g for 30 min at 4° C., the pellet was resuspended in cold 10 mM Tris-HCl buffer comprising 0.1 mM EDTA (pH 7.4), homogenized, and centrifuged as above. This pellet was further resuspended in a smaller volume of ice cold 10 mM Tris-HCl buffer comprising 0.1 mM EDTA (pH 7.4) and homogenized with a Polytron for 20-30 sec at 12.000 rpm. The protein content of this homogenate was determined with the Bio-Rad (Bradford) Protein Assay (Biorad Laboratories GmbH, München, Germany) according to the instructions of the manufacturer using gamma globulin as the standard. This homogenate was stored at −80° C. in aliquots and thawed immediately prior to use.
Aliquots of membrane preparations were thawed at RT, resupended in assay buffer (D2, D3: 50 mM Tris-HCl, 120 mM NaCl, 5 mM MgCl2, 1 mM EDTA, 5 mM KCl, 1.5 mM CaCl2, pH=7.4; 5-HT2A: 50 mM Tris-HCl, 10 mM MgCl2, 1 mM EGTA, pH=7.4), homogenized with a Polytron for 20-30 sec at 12.000 rpm and adjusted to a final concentration of approximately 7.5 μg protein/well (D2, D3) and 15 μg protein/well (5-HT2A), respectively.
The binding affinity (Ki) of the compounds was determined using radioligand binding. Membranes were incubated in a total volume of 200 μl with a fixed concentration of radioligand (final concentration approximately 0.7 nM [^3H]-spiperone for D2, 0.5 nM [^3H]-spiperone for D3, and 1.1 nM [^3H]-ketanserin for 5-HT2A) and ten concentrations of test compound in ranging between 10 μM-0.1 nM for 1 h at RT. At the end of the incubation, the reaction mixtures were filtered on to unifilter 96-well white microplates with bonded GF/C filters (Packard BioScience, Zürich, Switzerland; preincubated for 1 h in 0.1% polyethylenimine (PEI) in assay buffer) with a Filtermate 196 harvester (Packard BioScience) and washed 3 times with cold assay buffer. The nonspecific binding was determined with equally composed reaction mixtures in the presence of 10 μM unlabelled spiperone. Per well 45 μl of Microscint 40 (Perkin Elmer, Schwerzenbach, Switzerland) was added, plates for sealed, shaken for 20 min and counted for 3 min on a Topcount Microplate Scintillation Counter (Can berra Packard S A, Zürich, Switzerland) with quenching correction.
The CPM value for each duplicate of a concentration of competing compound was averaged (y1), then the % specific binding was calculated according to the equation (((y1−non-specific)/(total binding−non-specific))×100). Graphs were plotted with the % specific binding using XLfit, a curve fitting program that iteratively plots the data using Levenberg-Marquardt algorithm. The single site competition analysis equation used was y=A+((B−A)/(1+((x/C)D))), where y is the % specific binding, A is the minimum y, B is the maximum y, C is the IC50, x is the log 10 of the concentration of the competing compound and D is the slope of the curve (the Hill Coefficient). […] The affinity constant (Ki) was calculated using the Cheng-Prusoff equation Ki=(IC50/1+([L]/Kd), where [L] is the concentration of radioligand and Kd is the dissociation constant of the radioligand at the receptor as determined by the saturation isotherm.

Usually Ki stands for a measure of affinity in units of concentration, obtained from inhibition or displacement. Read a low Ki as tighter binding. As usually defined, the melting point is the temperature, or range, at which the solid turns liquid. `O=C(N[C@H]1CC[C@H](CCN2CCN(c3nccc4c3OCC4)CC2)CC1)c1ccc(F)cc1` [Example 40, trans-N-(4-{2-[4-(2,3-Dihydro-furo[2,3-c]pyridin-7-yl)-piperazin-1-yl]-ethyl}-cyclohexyl)-4-fluoro-benzamide]: the melting point amounted to 235.5 °C. Besides, at human D2 receptor, the affinity, expressed as Ki, was 1650 nM. On human 5-HT2A receptor, this molecule returned an inhibitory constant (Ki) of 22.1 nM. The same molecule gave a Ki on human D3 receptor of 8.93 nM.
The molecule `CN(C)C(=O)CCC(=O)N[C@H]1CC[C@H](CCN2CCN(c3nccc4c3OCC4)CC2)CC1` [Example 41, trans-N-(4-{2-[4-(2,3-Dihydro-furo[2,3-c]pyridin-7-yl)-piperazin-1-yl]-ethyl}-cyclohexyl)-N′,N′-dimethyl-succinamide] showed a melting point of 177.5 °C. The molecule also gave a Ki on human D2 receptor of 2350 nM. Further, the Ki on human 5-HT2A receptor stood at 63.8 nM. At human D3 receptor, this molecule registered a Ki of 33.4 nM.
Take `CC(C)CCC(=O)N[C@H]1CC[C@H](CCN2CCN(c3nccc4c3OCC4)CC2)CC1` [Example 42, trans-4-Methyl-pentanoic acid (4-{2-[4-(2,3-dihydro-furo[2,3-c]pyridin-7-yl)-piperazin-1-yl]-ethyl}-cyclohexyl)-amide]: the melting point was 175 °C. The molecule also yielded a Ki at human D2 receptor of 879 nM. For the same molecule, the Ki on human 5-HT2A receptor is 44.4 nM. In addition, at human D3 receptor, affinity was put at a Ki of 15.5 nM.
On to `Cc1cc(CC(=O)N[C@H]2CC[C@H](CCN3CCN(c4nccc5c4OCC5)CC3)CC2)on1` [Example 43, trans-N-(4-{2-[4-(2,3-Dihydro-furo[2,3-c]pyridin-7-yl)-piperazin-1-yl]-ethyl}-cyclohexyl)-2-(3-methyl-isoxazol-5-yl)-acetamide], for which the melting point was 222.5 °C. Also, at human D2 receptor, the Ki is 3710 nM. The same molecule returned an inhibitory constant (Ki) on human 5-HT2A receptor of 41.2 nM. The molecule further showed an inhibition constant Ki on human D3 receptor of 2.68 nM.
`O=C(N[C@H]1CC[C@H](CCN2CCN(c3nccc4c3OCC4)CC2)CC1)C1(O)CC1` [Example 44, 1-Hydroxy-cyclopropanecarboxylic acid trans-(4-{2-[4-(2,3-dihydro-furo[2,3-c]pyridin-7-yl)-piperazin-1-yl]-ethyl}-cyclohexyl)-amide] yielded a melting point of 248.5 °C. Further, on human D2 receptor, the Ki was determined as 793 nM. Further, the Ki on human 5-HT2A receptor stood at 9.91 nM. At human D3 receptor, the Ki turned out to be 16.8 nM.
The corresponding values for `CCCC(=O)N[C@H]1CC[C@H](CCN2CCN(c3nccc4c3OCC4)CC2)CC1` [Example 45, trans-N-(4-{2-[4-(2,3-Dihydro-furo[2,3-c]pyridin-7-yl)-piperazin-1-yl]-ethyl}-cyclohexyl)-butyramide] are 183 °C, 731 nM, 50.1 nM and 10.1 nM.
The corresponding values for `CC(C)(O)CC(=O)N[C@H]1CC[C@H](CCN2CCN(c3nccc4c3OCC4)CC2)CC1` [Example 46, trans-N-(4-{2-[4-(2,3-Dihydro-furo[2,3-c]pyridin-7-yl)-piperazin-1-yl]-ethyl}-cyclohexyl)-3-hydroxy-3-methyl-butyramide] are 139 °C, 904 nM, 49.6 nM and 14 nM.
Turning to `O=C(C[C@@H](O)C(F)(F)F)N[C@H]1CC[C@H](CCN2CCN(c3nccc4c3OCC4)CC2)CC1` [Example 47, trans-(R)—N-(4-{2-[4-(2,3-Dihydro-furo[2,3-c]pyridin-7-yl)-piperazin-1-yl]-ethyl}-cyclohexyl)-4,4,4-trifluoro-3-hydroxy-butyramide], the melting point came out at 214.5 °C. At human D2 receptor, this molecule showed a Ki of 943 nM. At human 5-HT2A receptor, this molecule yielded a Ki of 89 nM. The affinity at human D3 receptor corresponds to a Ki of 15 nM.
As to `CC[C@H](O)CC(=O)N[C@H]1CC[C@H](CCN2CCN(c3nccc4c3OCC4)CC2)CC1` [Example 48, trans-(S)-3-Hydroxy-pentanoic acid (4-{2-[4-(2,3-dihydro-furo[2,3-c]pyridin-7-yl)-piperazin-1-yl]-ethyl}-cyclohexyl)-amide], the melting point was found to be 217 °C. The same molecule returned a Ki on human D2 receptor of 1090 nM. Moreover, the Ki on human 5-HT2A receptor came out at 56.8 nM. The molecule also showed a Ki on human D3 receptor of 18.2 nM.
With `O=C(CCO)N[C@H]1CC[C@H](CCN2CCN(c3nccc4c3OCC4)CC2)CC1` [Example 49, trans-N-(4-{2-[4-(2,3-Dihydro-furo[2,3-c]pyridin-7-yl)-piperazin-1-yl]-ethyl}-cyclohexyl)-3-hydroxy-propionamide], the melting point was found to be 257 °C. On human D2 receptor, this molecule displayed an inhibitory constant (Ki) of 723 nM. The Ki on human 5-HT2A receptor stood at 82.3 nM. This molecule also had a Ki at human D3 receptor of 10.4 nM.
`O=C(N[C@H]1CC[C@H](CCN2CCN(c3nccc4c3OCC4)CC2)CC1)C(F)(F)F` [Example 50, trans-N-(4-{2-[4-(2,3-Dihydro-furo[2,3-c]pyridin-7-yl)-piperazin-1-yl]-ethyl}-cyclohexyl)-2,2,2-trifluoro-acetamide] displayed a melting point of 198.5 °C. Further, at human D2 receptor, affinity was put at a Ki of 551 nM. The affinity on human 5-HT2A receptor corresponds to a Ki of 45.7 nM. The molecule further gave a Ki at human D3 receptor of 29.5 nM.
In turn, `CCCCC(=O)N[C@H]1CC[C@H](CCN2CCN(c3nccc4c3OCC4)CC2)CC1` [Example 51, Pentanoic acid trans-(4-{2-[4-(2,3-dihydro-furo[2,3-c]pyridin-7-yl)-piperazin-1-yl]-ethyl}-cyclohexyl)-amide] gave a melting point of 168 °C. At human D2 receptor, the affinity, expressed as Ki, was 726 nM. The same molecule came in with a Ki at human 5-HT2A receptor of 50.3 nM. Further, the affinity at human D3 receptor corresponds to a Ki of 10.4 nM.
Consider `CO[C@H]1CC[C@H](CC(=O)N[C@H]2CC[C@H](CCN3CCN(c4nccc5c4OCC5)CC3)CC2)C1` [Example 52, trans-N-(4-{2-[4-(2,3-Dihydro-furo[2,3-c]pyridin-7-yl)-piperazin-1-yl]-ethyl}-cyclohexyl)-2-((1S,3S)-3-methoxy-cyclopentyl)-acetamide], for which the melting point stood at 199 °C. The affinity at human D2 receptor, expressed as Ki, was 948 nM. The Ki at human 5-HT2A receptor turned out to be 44 nM. Also, the Ki at human D3 receptor came out at 13.4 nM.
With `O=CN[C@H]1CC[C@H](CCN2CCN(c3nccc4c3OCC4)CC2)CC1` [Example 53, trans-N-(4-{2-[4-(2,3-Dihydro-furo[2,3-c]pyridin-7-yl)-piperazin-1-yl]-ethyl}-cyclohexyl)-formamide], the melting point was 153.5 °C. The molecule also came in with a Ki on human D2 receptor of 1110 nM. This molecule returned a Ki at human 5-HT2A receptor of 70.2 nM. This molecule had a Ki at human D3 receptor of 23.1 nM.
The corresponding values for `O=C(N[C@H]1CC[C@H](CCN2CCN(c3nccc4c3OCC4)CC2)CC1)c1ccc(Cl)cc1` [Example 54, trans-4-Chloro-N-(4-{2-[4-(2,3-dihydro-furo[2,3-c]pyridin-7-yl)-piperazin-1-yl]-ethyl}-cyclohexyl)-benzamide] are 251.5 °C, 2390 nM, 66.7 nM and 12.6 nM.
Molecule `O=C(N[C@H]1CC[C@H](CCN2CCN(c3nccc4c3OCC4)CC2)CC1)c1ccc(C(F)(F)F)cc1` [Example 55, trans-N-(4-{2-[4-(2,3-Dihydro-furo[2,3-c]pyridin-7-yl)-piperazin-1-yl]-ethyl}-cyclohexyl)-4-trifluoromethyl-benzamide] yielded a melting point of 242.5 °C. Further, the “D2 Ki” value on human D2 receptor is “inactive”. Further, the Ki at human 5-HT2A receptor was 78.7 nM. The molecule further returned a Ki at human D3 receptor of 51.5 nM.
In the case of `CC(C)(C)c1ccc(C(=O)N[C@H]2CC[C@H](CCN3CCN(c4nccc5c4OCC5)CC3)CC2)cc1` [Example 56, trans-4-tert-Butyl-N-(4-{2-[4-(2,3-dihydro-furo[2,3-c]pyridin-7-yl)-piperazin-1-yl]-ethyl}-cyclohexyl)-benzamide], the melting point came out at 183 °C. The same molecule yielded a Ki at human D2 receptor of 1930 nM. Further, the Ki at human 5-HT2A receptor came to 67.4 nM. On human D3 receptor, this molecule returned a Ki of 79.5 nM.
The molecule `O=C(N[C@H]1CC[C@H](CCN2CCN(c3nccc4c3OCC4)CC2)CC1)c1ccc(N2CCCCC2)cc1` [Example 57, trans-N-(4-{2-[4-(2,3-Dihydro-furo[2,3-c]pyridin-7-yl)-piperazin-1-yl]-ethyl}-cyclohexyl)-4-piperidin-1-yl-benzamide] displayed a melting point of 182.5 °C. At human D2 receptor, this molecule gave an inhibition constant (Ki) of 1760 nM. In addition, the Ki on human 5-HT2A receptor was determined as 50.6 nM. Further, the Ki at human D3 receptor came out at 42.7 nM.
As to `CC(C)(O)C(=O)N[C@H]1CC[C@H](CCN2CCN(c3nccc4c3OCC4)CC2)CC1` [Example 59, trans-N-(4-{2-[4-(2,3-Dihydro-furo[2,3-c]pyridin-7-yl)-piperazin-1-yl]-ethyl}-cyclohexyl)-2-hydroxy-2-methyl-propionamide], the melting point is 241 °C. Besides, the affinity on human D2 receptor corresponds to a Ki of 1130 nM. Besides, the Ki at human 5-HT2A receptor came to 8.48 nM. On human D3 receptor, this molecule returned a Ki of 44.7 nM.
`O=C(N[C@H]1CC[C@H](CCN2CCN(c3nccc4c3OCC4)CC2)CC1)c1ccc2c(c1)OCO2` [Example 60, Benzo[1,3]dioxole-5-carboxylic acid trans-(4-{2-[4-(2,3-dihydro-furo[2,3-c]pyridin-7-yl)-piperazin-1-yl]-ethyl}-cyclohexyl)-amide] displayed a melting point of 213.5 °C. The molecule further registered a Ki at human D2 receptor of 348 nM. Also, the affinity at human 5-HT2A receptor, expressed as Ki, was 23 nM. Besides, at human D3 receptor, the affinity, expressed as Ki, was 7.32 nM.
`Cc1cc(C(=O)N[C@H]2CC[C@H](CCN3CCN(c4nccc5c4OCC5)CC3)CC2)on1` [Example 61, 3-Methyl-isoxazole-5-carboxylic acid trans-(4-{2-[4-(2,3-dihydro-furo[2,3-c]pyridin-7-yl)-piperazin-1-yl]-ethyl}-cyclohexyl)-amide] gave a melting point of 199 °C. At human D2 receptor, the Ki is 488 nM. Moreover, the Ki at human 5-HT2A receptor turned out to be 48.6 nM. Also, affinity on human D3 receptor was put at a Ki of 26.1 nM.
